What all share (experiment): relative viability (nuclei count vs DMSO), 5 days (fraction); higher = more cells survive
Compound in assay [1]: C/C(=N\NC(=S)N1CCC1)/C2=CC=CC=N2 + COc1cccc2cc(-c3nc([C@H]4CC[C@H](C(=O)O)CC4)n4ncnc(N)c34)[nH]c12 [OSI-027] (partner 0.5 µM)
The procedure, abridged:
(§1)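 Lung cancer cell lines in 1536-well plates were dosed by pin tool the day after seeding, either with one drug alone or with a fixed anchor-drug dose plus five library-drug doses (not always all listed) in √10 steps. After 5 days, cells were fixed and their nuclei stained in one step (final 0.05% Triton X-100, 1% formaldehyde, 1 ug/ml Hoechst), then counted on 4× images. Relative viability is the nuclei count in treated wells divided by that in vehicle wells. Values are medians of duplicate plates.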

Compound in assay [2]: C/C(=N\NC(=S)N1CCC1)/C2=CC=CC=N2 + CS(=O)(=O)CCNCc1ccc(-c2ccc3ncnc(Nc4ccc(OCc5cccc(F)c5)c(Cl)c4)c3c2)o1 [Lapatinib] (partner 2 µM)
The method in brief: as §1

Compound in assay [3]: C/C(=N\NC(=S)N1CCC1)/C2=CC=CC=N2 + CCNC(=O)c1noc(-c2cc(C(C)C)c(O)cc2O)c1-c1ccc(CN2CCOCC2)cc1 [Luminespib] (partner 0.01 µM)
The method in brief:
as §1

Compound in assay [4]: C/C(=N\NC(=S)N1CCC1)/C2=CC=CC=N2 + C[C@]1(O)C[C@@H](c2nc(-c3ccc4ccc(-c5ccccc5)nc4c3)c3c(N)nccn32)C1 [Linsitinib] (partner 1 µM)
The method in brief: as §1

As to NCI-H2023, the relative viability in assay [1] (first compound 0.05 µM) amounted to 0.0569; in assay [1] (first compound 0.1581 µM), 0.0687; in assay [1] (first compound 0.5 µM), 0.0687; in assay [1] (first compound 1.581 µM), 0.0508; in assay [1] (first compound 5 µM), 0.0603; in assay [2] (first compound 0.05 µM), 0.0813. Also, the relative viability in assay [2] (first compound 0.1581 µM) amounted to 0.0823; in assay [2] (first compound 0.5 µM), 0.106; in assay [2] (first compound 1.581 µM), 0.064; in assay [2] (first compound 5 µM), 0.0792; in assay [3] (first compound 0.05 µM), 0.067; in assay [3] (first compound 0.1581 µM), 0.0631. In addition, the relative viability amounted to 0.0621 in assay [3] (first compound 0.5 µM); 0.0569 in assay [3] (first compound 1.581 µM); 0.0694 in assay [3] (first compound 5 µM); 0.1 in assay [4] (first compound 0.05 µM); 0.0863 in assay [4] (first compound 0.1581 µM); 0.0724 in assay [4] (first compound 0.5 µM). For the same cell line, the values for the relative viability in assay [4] (first compound 1.581 µM) and in assay [4] (first compound 5 µM) were 0.0807 and 0.0886, respectively.
Turning to COR-L 105, the relative viability in assay [1] (first compound 0.05 µM) was 0.251; in assay [1] (first compound 0.1581 µM), 0.329; in assay [1] (first compound 0.5 µM), 0.338; in assay [1] (first compound 1.581 µM) it was 0.255; in assay [1] (first compound 5 µM), 0.248; in assay [2] (first compound 0.05 µM), 0.375. In addition, the relative viability worked out at 0.342 in assay [2] (first compound 0.1581 µM); 0.375 in assay [2] (first compound 0.5 µM); 0.314 in assay [2] (first compound 1.581 µM); 0.286 in assay [2] (first compound 5 µM); 0.227 in assay [3] (first compound 0.05 µM); 0.247 in assay [3] (first compound 0.1581 µM). Also, the relative viability was 0.259 in assay [3] (first compound 0.5 µM); 0.167 in assay [3] (first compound 1.581 µM); 0.265 in assay [3] (first compound 5 µM); 0.343 in assay [4] (first compound 0.05 µM); 0.265 in assay [4] (first compound 0.1581 µM); 0.265 in assay [4] (first compound 0.5 µM). Further, the relative viability came out at 0.332 in assay [4] (first compound 1.581 µM) and 0.261 in assay [4] (first compound 5 µM).
Turning to NCI-H1734, the relative viability in assay [1] (first compound 0.05 µM) is 0.167; in assay [1] (first compound 0.1581 µM), 0.163; in assay [1] (first compound 0.5 µM), 0.179; in assay [1] (first compound 1.581 µM), 0.116; in assay [1] (first compound 5 µM), 0.118; in assay [2] (first compound 0.05 µM), 0.162. For the same cell line, the relative viability in assay [2] (first compound 0.1581 µM) was determined as 0.141; in assay [2] (first compound 0.5 µM), 0.15; in assay [2] (first compound 1.581 µM), 0.115; in assay [2] (first compound 5 µM), 0.12; in assay [3] (first compound 0.05 µM) it was 0.123; in assay [3] (first compound 0.1581 µM), 0.105. For the same cell line, the relative viability came to 0.116 in assay [3] (first compound 0.5 µM); 0.118 in assay [3] (first compound 1.581 µM); 0.117 in assay [3] (first compound 5 µM); 0.141 in assay [4] (first compound 0.05 µM); 0.183 in assay [4] (first compound 0.1581 µM); 0.16 in assay [4] (first compound 0.5 µM). In addition, the relative viability came out at 0.142 in assay [4] (first compound 1.581 µM) and 0.131 in assay [4] (first compound 5 µM).
For NCI-H3122, the relative viability in assay [1] (first compound 0.05 µM) came to 0.138; in assay [1] (first compound 0.1581 µM), 0.0988; in assay [1] (first compound 0.5 µM), 0.132; in assay [1] (first compound 1.581 µM) it was 0.134; in assay [1] (first compound 5 µM), 0.129; in assay [2] (first compound 0.05 µM) it was 0.304. For the same cell line, the relative viability in assay [2] (first compound 0.1581 µM) turned out to be 0.284; in assay [2] (first compound 0.5 µM), 0.268; in assay [2] (first compound 1.581 µM), 0.291; in assay [2] (first compound 5 µM) it was 0.243; in assay [3] (first compound 0.05 µM) it was 0.0803; in assay [3] (first compound 0.1581 µM) it was 0.063. Further, the relative viability turned out to be 0.0978 in assay [3] (first compound 0.5 µM); 0.134 in assay [3] (first compound 1.581 µM); 0.11 in assay [3] (first compound 5 µM); 0.145 in assay [4] (first compound 0.05 µM); 0.143 in assay [4] (first compound 0.1581 µM); 0.169 in assay [4] (first compound 0.5 µM). Moreover, the figures for the relative viability in assay [4] (first compound 1.581 µM) and in assay [4] (first compound 5 µM) were 0.246 and 0.221, respectively.
For the cell line CAL-12T, the relative viability came to 0.133 in assay [1] (first compound 0.05 µM); 0.126 in assay [1] (first compound 0.1581 µM); 0.145 in assay [1] (first compound 0.5 µM); 0.105 in assay [1] (first compound 1.581 µM); 0.147 in assay [1] (first compound 5 µM); 0.259 in assay [2] (first compound 0.05 µM). Also, the relative viability came to 0.214 in assay [2] (first compound 0.1581 µM); 0.2 in assay [2] (first compound 0.5 µM); 0.182 in assay [2] (first compound 1.581 µM); 0.187 in assay [2] (first compound 5 µM); 0.138 in assay [3] (first compound 0.05 µM); 0.147 in assay [3] (first compound 0.1581 µM). Further, the relative viability in assay [3] (first compound 0.5 µM) was 0.0989; in assay [3] (first compound 1.581 µM) it was 0.105; in assay [3] (first compound 5 µM), 0.112; in assay [4] (first compound 0.05 µM) it was 0.167; in assay [4] (first compound 0.1581 µM), 0.165; in assay [4] (first compound 0.5 µM), 0.13. The values for the relative viability in assay [4] (first compound 1.581 µM) and in assay [4] (first compound 5 µM) were 0.16 and 0.142, respectively.
For the cell line NCI-H2085, the relative viability in assay [1] (first compound 0.05 µM) was determined as 0.276; in assay [1] (first compound 0.1581 µM) it was 0.214; in assay [1] (first compound 0.5 µM) it was 0.255; in assay [1] (first compound 1.581 µM) it was 0.24; in assay [1] (first compound 5 µM), 0.187; in assay [2] (first compound 0.05 µM), 0.341. The relative viability is 0.365 in assay [2] (first compound 0.1581 µM); 0.335 in assay [2] (first compound 0.5 µM); 0.271 in assay [2] (first compound 1.581 µM); 0.325 in assay [2] (first compound 5 µM); 0.236 in assay [3] (first compound 0.05 µM); 0.274 in assay [3] (first compound 0.1581 µM). In addition, the relative viability in assay [3] (first compound 0.5 µM) worked out at 0.281; in assay [3] (first compound 1.581 µM) it was 0.234; in assay [3] (first compound 5 µM) it was 0.211; in assay [4] (first compound 0.05 µM), 0.222; in assay [4] (first compound 0.1581 µM) it was 0.307; in assay [4] (first compound 0.5 µM), 0.242. Besides, the relative viability in assay [4] (first compound 1.581 µM) is 0.223; in assay [4] (first compound 5 µM), 0.215.

Values taken from the supplement of paper PMC10307832.
